Here are results for four compounds from US20170328922A1, “METHODS AND PRODUCTS FOR LABELLING LIPIDS” (UNIVERSITY OF SOUTH AUSTRALIA, priority 2014, published 2017).

A short description of test [1]: Rhenium molecular probe-lipid overlay (dot blot). It counts as binding. Also noted: key to interaction with Cholestrol (dot blot): ✓ indicates a positive interaction; x indicates no interaction. The settings on record: for interaction with Cholestrol (dot blot): 10 μM probe, 50 μM lipid on PVDF membrane; for affinity towards cholesterol, in words: FIG. 7 / FIG. 8. As to the method:
(§1) The experimental protocol probe-lipid overlay was as follows: 50 μM of each lipids was loaded on to PVDF membranes (Perkin Elmer, USA), which were then incubated with molecular probes. PhenCyano and PhenPyridyl were assessed against eleven lipids including; sphingomyelin (Cat # S0756, Sigma Aldrich, USA), sphingosine (Cat # S7049; Sigma Aldrich, USA), L-phosphatidylethanolamine (Cat # P7943, Sigma Aldrich, USA), monosialodanglioside (GM1; Cat # G7641, Sigma Aldrich, USA), oleoly-L-?-lysophosphatidic acid (Cat # L7260, Sigma Aldrich, USA), palmitic acid (Cat # P5917, Sigma Aldrich, USA), sphingomyelin (Cat # S0756, Sigma Aldrich, USA), sphingosine (Cat # S7049; Sigma Aldrich, USA), L-?-phosphatidylethanolamine (Cat # P7943, Sigma Aldrich, USA), monosialodanglioside (GM1; Cat # G7641, Sigma Aldrich, USA), progesterone (Cat #102722, MP Biomedical, USA), ceramide (Cat # C2137; Sigma Aldrich, USA), triacylglycerol mix C2-C10 (Cat #17810, Sigma Aldrich, USA) and cholesteryl acetate (Cat #151114; Sigma Aldrich, USA).
(§2) All other molecular probes were assessed against a panel of six lipids including; sphingomyelin (Cat # S0756, Sigma Aldrich, USA), sphingosine (Cat # S7049; Sigma Aldrich, USA), L-?-phosphatidylethanolamine (Cat # P7943, Sigma Aldrich, USA), monosialodanglioside (GM1; Cat # G7641, Sigma Aldrich, USA), sphingomyelin (Cat # S0756, Sigma Aldrich, USA), sphingosine (Cat # S7049; Sigma Aldrich, USA), L-?-phosphatidylethanolamine (Cat # P7943, Sigma Aldrich, USA), monosialodanglioside (GM1; Cat # G7641, Sigma Aldrich, USA) and triacylglycerol mix C2-C10 (Cat #17810, Sigma Aldrich, USA).
(§3) Lipids were dissolved in ethanol, methanol or isopropanol for loading depending on solubility. Following lipid loading, membranes were left to dry for 20-30 minutes, then they were washed for 10 minutes in cold 10% ethanol, before they were incubated with 10 μM solution of each Rhenium molecular probe in cold 10% ethanol for one hour. Membranes were than washed four times for 10 minutes in cold 10% ethanol prior to imaging. Imaging was performed on an Image Quant Las 4000 (GE, Sweden) luminescent image analyser, with the Rhenium molecular probe being detected by excitation at 460 nm using an epi-blue light source, and detected using an 575 nm ethidium bromide filter.

The nature of test [2]: Rhenium molecular probe-lipid overlay (dot blot). The settings on record: for interaction with Triglycerides (dot blot): 10 μM probe, 50 μM lipid on PVDF membrane; for interaction with triglycerides, in words: FIG. 7 / FIG. 8. Also on record: key to interaction with Triglycerides (dot blot): ✓ indicates a positive interaction; x indicates no interaction. The format is binding. On the procedure:
as §1, §2, §3

Test [3] can be described thus: Rhenium molecular probe-lipid overlay (dot blot). The format is binding. Also noted: key to interaction with GM1 (dot blot): ✓ indicates a positive interaction; x indicates no interaction. The settings on record: for interaction with GM1 (dot blot): 10 μM probe, 50 μM lipid on PVDF membrane; for affinity towards monosialotetrahexosylganglioside (GM1), in words: FIG. 7 / FIG. 8. On the procedure: as §1, §2, §3

Test [4] in a line: Rhenium molecular probe-lipid overlay (dot blot). Also on record: key to interaction with Sphingosine (dot blot): ✓ indicates a positive interaction; x indicates no interaction. It counts as binding. The settings on record: for interaction with Sphingosine (dot blot): 10 μM probe, 50 μM lipid on PVDF membrane; for affinity towards sphingosine, in words: FIG. 7 / FIG. 8. As to the method:
as §1, §2, §3

Test [5] in a line: Rhenium molecular probe-lipid overlay (dot blot). The format is binding. Also noted: key to interaction with PE (dot blot): ✓ indicates a positive interaction; x indicates no interaction. Conditions: for interaction with PE (dot blot): 10 μM probe, 50 μM lipid on PVDF membrane; for affinity towards phosphatidylethanolamine (PE), in words: FIG. 7 / FIG. 8. On the procedure:
as §1, §2, §3

A short description of test [6]: Rhenium molecular probe-lipid overlay (dot blot). It counts as binding. Also noted: key to interaction with Sphingomyline (dot blot): ✓ indicates a positive interaction; x indicates no interaction. The settings on record: for interaction with Sphingomyline (dot blot): 10 μM probe, 50 μM lipid on PVDF membrane; for affinity towards sphingomyelin, in words: FIG. 7 / FIG. 8. As to the method:
as §1, §2, §3

The test system of test [7] is Drosophila fat body tissue. The test is described as follows: Live staining and confocal imaging of explanted fat body tissue. The format is cell-based. Conditions: fixed fat body, nutrient deprivation/starvation conditions. On the procedure:
All stocks were maintained in standard medium at 25° C. The yeast GAL4-UAS system was used for targeted gene expression (Brand and Perrimon, 1993). Fat-body specific expression of transgenes from the UAS were driven by CG-GAL4 (Asha et al., 2003). Transgenic UAS-Atg9RNAi stocks (#34901) and UAS-TorTED stocks (#7013) were obtained from the Bloomington Drosophila Stock Centre (Indiana University, IN, USA). Atg8aGFP was driven by an endogenous promoter (Kelso et al., 2004).
Bromophenol-blue was added to the fly media and used to define different developmental time points. […] Newly formed white pupae (0 h PF), were isolated onto moist filter paper and incubated at 25° C. for either two hours (+2 h PF) or four hours (+4 h PF).
Third instar larvae at −8 h PF were removed from standard media (normally feeding at this developmental stage) and placed on filter paper either soaked in 5% (w/v) sucrose (for amino acid deprivation), or 5% (w/v) tryptone pancreatic digest of casein (BD Bioscience USA; for carbohydrate deprivation), or soaked in water (for complete starvation). Larvae were incubated for 4-5 hours prior tissue isolation and imaging.
Fat body tissue was dissected into PBS from Drosophila larvae or pupae. The fat body tissue was either incubated with 10 μM tricarbonyl phenanthrolin (4-cyanophenyltretrazolato) Rhenium (I) in PBS for 15 minutes at room temperature, or LysoTracker® green (according to manufacturer instructions; Invitrogen, USA) and then mounted in carbomer-940 (Snowdrift farm, Tucson, USA) based optical coupling gel to prevent dehydration prior to imaging (Rothstein et al., 2006). For Oil Red O staining, fat body tissue was fixed in 4% (v/v) paraformaldehyde for 20 minutes, and incubated in 1/100 Oil Red 0 for 30 minutes and then washed in PBS before mounting in 80% glycerol.
A Ziess LSM710 META NLO confocal microscope (Zeiss, Germany), supplemented with a two-photon Mai-Tai® (tunable Ti:Sapphire femtosecond pulse laser, 710-920 nm, Spectra-Physics, Australia) was used for imaging. The images were acquired using a Plan-APOCHROMAT 63×/NA1.4 oil immersion objective. The Rhenium probe was excited at 830 nm using the two-photon pulse laser and detect at 600-654 nm. LysoTracker® green was imaged by excitation at 488 nm and detected at 497-558 nm. Atg8a-GFP was imaged with the Rhenium probe by excitation at 830 nm and resolved using spectral un-mixing using the Zen software package (based on spectral figure-printing of the two components). The Rhenium probe images and co-location analysis involved at least five separate images from five independent biological replicates, and one representative image from each treatment was selected for presentation (containing a minimum of 2 cells). For image quantification, two regions of interest (ROI) were selected at random with an area of 2500 μm^2 and the number of fluorescent puncta within the area counted, to give a minimum of 10 counts per treatment group. Comparison of means was performed by ANOVA with a Tukey post hoc tested in GraphPad Prism V.6.01 (USA).

For “facial-Tricarbonyl (η^1(N2)-5- cyanophen-4′-yl tetrazolato) η^2-2,2′- bipyridine Rhenium(I) [BiphenCyano]”, in test [1], the “interaction with Cholestrol (dot blot)” value is “✓” and the “affinity towards cholesterol, in words” value was “varying affinity”. In test [2], the “interaction with Triglycerides (dot blot)” value is listed as “x”. In test [3], the “interaction with GM1 (dot blot)” value was “✓” and the “affinity towards monosialotetrahexosylganglioside (GM1), in words” value is recorded as “varying affinity”. For the same compound, in test [4], the “interaction with Sphingosine (dot blot)” value is given as “✓” and the “affinity towards sphingosine, in words” value is “varying affinity”. In test [5], the “interaction with PE (dot blot)” value is on record as “✓” and the “affinity towards phosphatidylethanolamine (PE), in words” value is “varying affinity”. Further, in test [6], the “interaction with Sphingomyline (dot blot)” value is reported as “✓” and the “affinity towards sphingomyelin, in words” value is “varying affinity”.

Take `Cc1ccc(C)c(N=Nc2cc(C)c(N=Nc3c(O)ccc4ccccc34)cc2C)c1` [oil red, reference compound]: the “colocalisation of staining with Atg8a-GFP” value in test [7] is given as “did not appear to colocalise”.

For the compound `COC(=O)c1ccc(-c2nn[n]([Re](=[C]=O)(=[C]=O)=[C]=O)n2)cc1.c1cnc2c(c1)ccc1cccnc12` [PhenEster], in test [1], the “interaction with Cholestrol (dot blot)” value is on record as “✓” and the “affinity towards cholesterol, in words” value was “varying affinity”. In test [2], the “interaction with Triglycerides (dot blot)” value is reported as “✓” and the “interaction with triglycerides, in words” value was “appeared to interact”. Also, in test [3], the “interaction with GM1 (dot blot)” value was “✓” and the “affinity towards monosialotetrahexosylganglioside (GM1), in words” value is on record as “varying affinity”. Moreover, in test [4], the “interaction with Sphingosine (dot blot)” value is on record as “✓” and the “affinity towards sphingosine, in words” value was “varying affinity”. Also, in test [5], the “interaction with PE (dot blot)” value is reported as “✓” and the “affinity towards phosphatidylethanolamine (PE), in words” value is given as “varying affinity”. In test [6], the “interaction with Sphingomyline (dot blot)” value is “✓” and the “affinity towards sphingomyelin, in words” value is on record as “varying affinity”.

On to “facial-Tricarbonyl (η^1(N2)-5-(methyl bcnzoate-4′-yl tetrazolato) η^2-2,2′- bipyridine Rhenium(I) [BiphenEster]”, for which, in test [1], the “affinity towards cholesterol, in words” value is listed as “varying affinity”. In test [2], the “interaction with Triglycerides (dot blot)” value was “✓” and the “interaction with triglycerides, in words” value is reported as “appeared to interact”. In test [3], the “interaction with GM1 (dot blot)” value was “✓” and the “affinity towards monosialotetrahexosylganglioside (GM1), in words” value is listed as “varying affinity”. Moreover, in test [4], the “affinity towards sphingosine, in words” value was “varying affinity”. For the same compound, in test [5], the “interaction with PE (dot blot)” value is listed as “✓” and the “affinity towards phosphatidylethanolamine (PE), in words” value is listed as “varying affinity”. For the same compound, in test [6], the “interaction with Sphingomyline (dot blot)” value is listed as “✓” and the “affinity towards sphingomyelin, in words” value is “varying affinity”.
